{"source": "ChEMBL document CHEMBL3758090", "about": "“Investigation of α-conotoxin unbinding using umbrella sampling” (Bioorg Med Chem Lett, 2016)", "target": "T1, Soluble acetylcholine receptor (Aplysia californica, UniProt Q8WSF8)", "T1 sequence (Q8WSF8 whole entry)": "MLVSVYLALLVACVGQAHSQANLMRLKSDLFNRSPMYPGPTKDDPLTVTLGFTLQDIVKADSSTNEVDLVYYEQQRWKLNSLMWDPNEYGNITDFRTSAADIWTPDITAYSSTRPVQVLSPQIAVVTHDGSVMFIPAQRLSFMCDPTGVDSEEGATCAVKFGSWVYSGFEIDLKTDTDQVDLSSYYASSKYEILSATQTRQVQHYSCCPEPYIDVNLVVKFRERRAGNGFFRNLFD", "assay": "Displacement [125I]alpha-bungarotoxin from untagged Aplysia californica AChBP expressed in Sf9 cells by competitive binding assay", "note": "Positions of bridges follow the written chain, without caps; N, C: chain ends. Residues, ends and D or L forms follow the SMILES beside them.", "data": [{"smiles": "CC(C)C[C@@H]1NC(=O)[C@H](C)NC(=O)[C@@H]2CSSC[C@H](NC(=O)CN)C(=O)N[C@@H](CSSC[C@@H](C(=O)O)NC(=O)[C@H](Cc3ccc(O)cc3)NC(=O)[C@H](CCCCN)NC(=O)[C@@H]3CCCN3C(=O)[C@H](CC(N)=O)NC(=O)[C@H](CC(N)=O)NC1=O)C(=O)N[C@@H](CO)C(=O)N[C@@H](CC(C)C)C(=O)N1CCC[C@H]1C(=O)N1CCC[C@H]1C(=O)N2", "note": "(H-GCCSLPPCALNNPKYC-OH; disulfide 2-8, 3-16)", "values": [{"measurement": "IC50", "result": 28, "unit": "nM"}]}]}
